Where “and” joins values, the source holds several entries; their conditions need not be identical. Identical values can stand only once. Like-named read-outs stand apart in the source and are kept apart here.
Tests used:
Assay type in all cases: cell-based
HIV-1 CNE15 = settings: Table 7; CNE15, clade BC, R5
HIV-1 CNE1 = settings: Table 7; CNE1, clade B′, X4
HIV-1 CNE65 = settings: Table 7; CNE65, clade C, R5
HIV-1 CNE5 = settings: Table 7; CNE5, clade AE, R5
HIV-1 CH110 = settings: Table 7; CH110, clade BC, R5
HIV-1 CNE40 = settings: Table 7; CNE40, clade BC, R5
HIV-1 CH120 = settings: Table 7; CH120, clade BC, R5
HIV-1 CNE58 = settings: Table 7; CNE58, clade C, R5
HIV-1 CH91 = settings: Table 7; CH91, clade BC, R5
HIV-1 CNE66 = settings: Table 7; CNE66, clade C, R5
HIV-1 CH117 = settings: Table 7; CH117, clade BC, R5
HIV-1 CNE49 = settings: Table 7; CNE49, clade BC, R5
[1] = system: 41 HIV-1 isolates predominantly circulating in China; settings: for IC50 / IC90: Table 7, all viruses, >750 assigned 800, >250 assigned 300, >100 assigned 150, >28 assigned 30
HIV-1 CNE53 = settings: Table 7; CNE53, clade BC, R5
HIV-1 CNE3 = settings: Table 7; CNE3, clade AE, R5
HIV-1 AE20 = settings: Table 7; AE20, clade AE, R5
HIV-1 CNE4 = settings: Table 7; CNE4, clade B′, R5
HIV-1 YN192.31 = settings: Table 7; YN192.31, clade AE, R5
HIV-1 AE03 = settings: Table 7; AE03, clade AE, R5
HIV-1 CNE68 = settings: Table 7; CNE68, clade BC, R5
HIV-1 CNE64 = settings: Table 7; CNE64, clade B′, R5
HIV-1 CNE107 = settings: Table 7; CNE107, clade AE, X4
HIV-1 CNE17 = settings: Table 7; CNE17, clade C, R5
HIV-1 CNE57 = settings: Table 7; CNE57, clade B′, X4
HIV-1 CNE7 = settings: Table 7; CNE7, clade BC, R5
HIV-1 CNE16 = settings: Table 7; CNE16, clade BC, R5
HIV-1 CH70 = settings: Table 7; CH70, clade BC, R5
HIV-1 CNE23 = settings: Table 7; CNE23, clade BC, R5
HIV-1 CNE46 = settings: Table 7; CNE46, clade BC, R5
HIV-1 GX2010.36 = settings: Table 7; GX2010.36, clade AE, R5
HIV-1 CNE47 = settings: Table 7; CNE47, clade BC, R5
HIV-1 CNE14 = settings: Table 7; CNE14, clade B′, R5
[2] = read-out: IC50, arithmetic mean
[3] = read-out: IC90, arithmetic mean

## 4Dm2m: bispecific multivalent fusion protein of mD1.22 and m36.4; two SEQ ID NO: 20 and two SEQ ID NO: 21 chains
HIV-1 CNE15
  IC50: 0.29 nM
  IC90: 2.6 nM
HIV-1 CNE1
  IC50: 0.11 nM
  IC90: 0.61 nM
HIV-1 CNE65
  IC50: 0.28 nM
  IC90: 3.3 nM
HIV-1 CNE5
  IC50: 0.67 nM
  IC90: 8.7 nM
HIV-1 CH110
  IC50: 0.11 nM
  IC90: 0.83 nM
HIV-1 CNE40
  IC50: 0.01 nM
  IC90: 0.11 nM
HIV-1 CH120
  IC50: 0.33 nM
  IC90: 6.6 nM
HIV-1 CNE58
  IC90: > 28 nM
HIV-1 CH91
  IC50: 0.39 nM
  IC90: 10 nM
HIV-1 CNE66
  IC90: 7.7 nM
HIV-1 CH117
  IC50: 0.33 nM
HIV-1 CNE49
  IC50: 0.05 nM
  IC90: 0.56 nM
[1]; 41 isolates, P<0.001
  IC50 geometric mean lower than that of C34: ~16 fold
  IC50 geometric mean lower than that of CD4-Ig: ~200 fold
[1]; 41 isolates, P=0.002
  IC50 geometric mean lower than that of T20: about 50 fold
[1]; [2]
  IC50: 0.34 nM
[1]; read-out: IC50, geometric mean
  IC50: ~0.2 nM and 0.22 nM
[1]; [3]
  IC90: 6.2 nM
[1]; read-out: IC90, geometric mean
  IC90: 3.5 nM
HIV-1 CNE53
  IC50: 0.24 nM
  IC90: 5.5 nM
HIV-1 CNE3
  IC50: 0.39 nM
  IC90: 2.8 nM
HIV-1 AE20
  IC50: 0.72 nM
HIV-1 CNE4
  IC50: 0.11 nM
  IC90: 2.4 nM
HIV-1 YN192.31
  IC50: 0.89 nM
HIV-1 AE03
  IC50: 0.67 nM
HIV-1 CNE68
  IC50: 0.11 nM
  IC90: 0.78 nM
HIV-1 CNE64
  IC50: 0.56 nM
HIV-1 CNE107
  IC50: 0.52 nM
HIV-1 CNE17
  IC50: 0.11 nM
  IC90: 2.4 nM
HIV-1 CNE57
  IC90: 19 nM
HIV-1 CNE7
  IC50: 0.18 nM
  IC90: 1.8 nM
HIV-1 CNE16
  IC50: 0.08 nM
  IC90: 1.2 nM
HIV-1 CH70
  IC50: 0.11 nM
  IC90: 1.2 nM
HIV-1 CNE23
  IC50: 0.49 nM
  IC90: 4.9 nM
HIV-1 CNE46
  IC50: 0.27 nM
  IC90: 9.4 nM
HIV-1 GX2010.36
  IC50: 0.11 nM
HIV-1 CNE47
  IC50: 0.11 nM
  IC90: 2.8 nM
HIV-1 CNE14
  IC90: 2.4 nM

## enfuvirtide
HIV-1 CNE15
  IC50: 14 nM
  IC90: 157 nM
HIV-1 CNE1
  IC50: 1.6 nM
  IC90: 17 nM
HIV-1 CNE65
  IC50: 5.9 nM
  IC90: 78 nM
HIV-1 CNE5
  IC50: 2.1 nM
  IC90: 19 nM
HIV-1 CH110
  IC50: 4.3 nM
  IC90: 262 nM
HIV-1 CNE40
  IC50: 4.9 nM
  IC90: 108 nM
HIV-1 CH120
  IC50: 11 nM
  IC90: 443 nM
HIV-1 CNE58
  IC50: 54 nM
  IC90: 745 nM
HIV-1 CH91
  IC50: 8.6 nM
  IC90: 310 nM
HIV-1 CNE66
  IC50: 129 nM
  IC90: 729 nM
HIV-1 CH117
  IC50: 2.3 nM
  IC90: 34 nM
HIV-1 CNE49
  IC50: 9.1 nM
  IC90: 236 nM
[1]; [2]
  IC50: 37 nM
[1]; read-out: IC50, geometric mean
  IC50: 11 nM
[1]; [3]
  IC90: 277 nM
[1]; read-out: IC90, geometric mean
  IC90: 123 nM
HIV-1 CNE53
  IC50: 51 nM
  IC90: 721 nM
HIV-1 CNE3
  IC50: 5.6 nM
  IC90: 38 nM
HIV-1 AE20
  IC50: 212 nM
  IC90: 572 nM
HIV-1 CNE4
  IC50: 1.7 nM
  IC90: 14 nM
HIV-1 YN192.31
  IC50: 42 nM
  IC90: 336 nM
HIV-1 AE03
  IC50: 304 nM
  IC90: 510 nM
HIV-1 CNE68
  IC50: 32 nM
  IC90: 321 nM
HIV-1 CNE64
  IC50: 1.9 nM
  IC90: 16 nM
HIV-1 CNE107
  IC50: 3.8 nM
  IC90: 45 nM
HIV-1 CNE17
  IC50: 42 nM
  IC90: 676 nM
HIV-1 CNE57
  IC50: 2.5 nM
  IC90: 24 nM
HIV-1 CNE7
  IC50: 4.3 nM
  IC90: 58 nM
HIV-1 CNE16
  IC50: 14 nM
  IC90: 169 nM
HIV-1 CH70
  IC50: 65 nM
  IC90: > 750 nM
HIV-1 CNE23
  IC50: 15 nM
  IC90: 228 nM
HIV-1 CNE46
  IC50: 26 nM
  IC90: 743 nM
HIV-1 GX2010.36
  IC50: 255 nM
  IC90: > 750 nM
HIV-1 CNE47
  IC50: 4.9 nM
  IC90: 42 nM
HIV-1 CNE14
  IC50: 9.7 nM
  IC90: 305 nM
